Laboratory results taken from PubChem BioAssay (NCI).
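A five-concentration, 48-hour dose response in 96-well plates underlies each endpoint, interpolated linearly between surrounding concentrations. TGI denotes the concentration required for complete inhibition of growth.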

Key:
Assay in all cases: NCI anticancer screen, dose series, 48 h
786-0 renal = test system: 786-0 renal
A498 renal = test system: A498 renal
A549 NSCLC = test system: A549 NSCLC
ACHN renal = test system: ACHN renal
BT-549 breast = test system: BT-549 breast
CAKI-1 renal = test system: CAKI-1 renal
CCRF-CEM leukemia = test system: CCRF-CEM leukemia
COLO 205 colon = test system: COLO 205 colon
DLD-1 colon = test system: DLD-1 colon
DMS 114 small cell lung = test system: DMS 114 small cell lung
DMS 273 small cell lung = test system: DMS 273 small cell lung
DU-145 prostate = test system: DU-145 prostate
EKVX NSCLC = test system: EKVX NSCLC
HCC-2998 colon = test system: HCC-2998 colon
HCT-116 colon = test system: HCT-116 colon
HCT-15 colon = test system: HCT-15 colon
HL-60(TB) leukemia = test system: HL-60(TB) leukemia
HOP-18 NSCLC = test system: HOP-18 NSCLC
HOP-62 NSCLC = test system: HOP-62 NSCLC
HOP-92 NSCLC = test system: HOP-92 NSCLC
HT29 colon = test system: HT29 colon
IGROV1 ovarian = test system: IGROV1 ovarian
K-562 leukemia = test system: K-562 leukemia
KM12 colon = test system: KM12 colon
KM20L2 colon = test system: KM20L2 colon
LOX IMVI melanoma = test system: LOX IMVI melanoma
LXFL 529 NSCLC = test system: LXFL 529 NSCLC
M14 melanoma = test system: M14 melanoma
MALME-3M melanoma = test system: MALME-3M melanoma
MCF7 breast = test system: MCF7 breast
MDA-MB-435 = test system: MDA-MB-435
MDA-N = test system: MDA-N
MOLT-4 leukemia = test system: MOLT-4 leukemia
NCI-H226 lung = test system: NCI-H226 lung
NCI-H23 lung = test system: NCI-H23 lung
NCI-H460 lung = test system: NCI-H460 lung
NCI-H522 lung = test system: NCI-H522 lung
OVCAR-3 ovarian = test system: OVCAR-3 ovarian
OVCAR-4 ovarian = test system: OVCAR-4 ovarian
OVCAR-5 ovarian = test system: OVCAR-5 ovarian
OVCAR-8 ovarian = test system: OVCAR-8 ovarian
PC-3 prostate = test system: PC-3 prostate
RPMI-8226 leukemia = test system: RPMI-8226 leukemia
RXF 393 renal = test system: RXF 393 renal
RXF-631 renal = test system: RXF-631 renal
SF-268 CNS = test system: SF-268 CNS
SF-295 CNS = test system: SF-295 CNS
SF-539 CNS = test system: SF-539 CNS
SK-MEL-2 melanoma = test system: SK-MEL-2 melanoma
SK-MEL-28 melanoma = test system: SK-MEL-28 melanoma
SK-MEL-5 melanoma = test system: SK-MEL-5 melanoma
SK-OV-3 ovarian = test system: SK-OV-3 ovarian
SN12C renal = test system: SN12C renal
SNB-19 CNS = test system: SNB-19 CNS
SNB-75 CNS = test system: SNB-75 CNS
SR leukemia = test system: SR leukemia
SW-620 colon = test system: SW-620 colon
T-47D breast = test system: T-47D breast
TK-10 renal = test system: TK-10 renal
U251 CNS = test system: U251 CNS
UACC-257 melanoma = test system: UACC-257 melanoma
UACC-62 melanoma = test system: UACC-62 melanoma
UO-31 renal = test system: UO-31 renal
XF 498 CNS = test system: XF 498 CNS
M19-MEL melanoma = test system: M19-MEL melanoma

Question: Which TGI (786-0 renal) does the source give for `CCOC(=O)C(=Cc1ccc(Oc2ccccc2)cc1)C(=O)OCC` here?
Answer: 3.47 µM

Question: What about the TGI (A498 renal) of the same compound?
Answer: 28.8 µM

Question: And the TGI (A549 NSCLC)?
Answer: 22.6 µM

Question: What about the TGI (ACHN renal) of the same compound?
Answer: 18.3 µM

Question: What about the TGI (BT-549 breast) of the same compound?
Answer: 5.11 µM

Question: What about the TGI (CAKI-1 renal) of the same compound?
Answer: 28.4 µM

Question: And the TGI (CCRF-CEM leukemia)?
Answer: 6.75 µM

Question: And the TGI (COLO 205 colon)?
Answer: 11.4 µM

Question: And the TGI (DLD-1 colon)?
Answer: 5.21 µM

Question: And the TGI (DMS 114 small cell lung)?
Answer: 10.9 µM

Question: What about the TGI (DMS 273 small cell lung) of the same compound?
Answer: 3.68 µM

Question: What about the TGI (DU-145 prostate) of the same compound?
Answer: 27.5 µM

Question: And the TGI (EKVX NSCLC)?
Answer: 29.4 µM

Question: And the TGI (HCC-2998 colon)?
Answer: 24 µM

Question: And the TGI (HCT-116 colon)?
Answer: 5.93 µM

Question: What about the TGI (HCT-15 colon) of the same compound?
Answer: 6.35 µM

Question: And the TGI (HL-60(TB) leukemia)?
Answer: 5.54 µM

Question: What about the TGI (HOP-18 NSCLC) of the same compound?
Answer: 26.8 µM

Question: What about the TGI (HOP-62 NSCLC) of the same compound?
Answer: 11.2 µM

Question: What about the TGI (HOP-92 NSCLC) of the same compound?
Answer: 16.2 µM

Question: What about the TGI (HT29 colon) of the same compound?
Answer: 11 µM

Question: And the TGI (IGROV1 ovarian)?
Answer: 20.8 µM

Question: And the TGI (K-562 leukemia)?
Answer: 5.27 µM

Question: What about the TGI (KM12 colon) of the same compound?
Answer: 19 µM

Question: What about the TGI (KM20L2 colon) of the same compound?
Answer: 16.8 µM

Question: And the TGI (LOX IMVI melanoma)?
Answer: 3.22 µM

Question: What about the TGI (LXFL 529 NSCLC) of the same compound?
Answer: 6.39 µM

Question: What about the TGI (M14 melanoma) of the same compound?
Answer: 9.6 µM

Question: What about the TGI (MALME-3M melanoma) of the same compound?
Answer: 7.4 µM

Question: And the TGI (MCF7 breast)?
Answer: 18.5 µM

Question: And the TGI (MDA-MB-435)?
Answer: 6.33 µM

Question: And the TGI (MDA-N)?
Answer: 18.6 µM

Question: And the TGI (MOLT-4 leukemia)?
Answer: 4.93 µM

Question: What about the TGI (NCI-H226 lung) of the same compound?
Answer: 12.1 µM

Question: And the TGI (NCI-H23 lung)?
Answer: 6.93 µM

Question: And the TGI (NCI-H460 lung)?
Answer: 40.7 µM

Question: What about the TGI (NCI-H522 lung) of the same compound?
Answer: 10.1 µM

Question: And the TGI (OVCAR-3 ovarian)?
Answer: 19.1 µM

Question: And the TGI (OVCAR-4 ovarian)?
Answer: 22.9 µM

Question: And the TGI (OVCAR-5 ovarian)?
Answer: 14 µM

Question: What about the TGI (OVCAR-8 ovarian) of the same compound?
Answer: 10.7 µM

Question: And the TGI (PC-3 prostate)?
Answer: 6.12 µM

Question: What about the TGI (RPMI-8226 leukemia) of the same compound?
Answer: 6.89 µM

Question: What about the TGI (RXF 393 renal) of the same compound?
Answer: 4.69 µM

Question: What about the TGI (RXF-631 renal) of the same compound?
Answer: 12.1 µM

Question: What about the TGI (SF-268 CNS) of the same compound?
Answer: 9.19 µM

Question: And the TGI (SF-295 CNS)?
Answer: 10.6 µM

Question: What about the TGI (SF-539 CNS) of the same compound?
Answer: 10.3 µM

Question: What about the TGI (SK-MEL-2 melanoma) of the same compound?
Answer: 4.4 µM

Question: And the TGI (SK-MEL-28 melanoma)?
Answer: 7.49 µM

Question: And the TGI (SK-MEL-5 melanoma)?
Answer: 3.9 µM

Question: What about the TGI (SK-OV-3 ovarian) of the same compound?
Answer: 20.5 µM

Question: What about the TGI (SN12C renal) of the same compound?
Answer: 5.65 µM

Question: And the TGI (SNB-19 CNS)?
Answer: 17.5 µM

Question: What about the TGI (SNB-75 CNS) of the same compound?
Answer: 11 µM

Question: What about the TGI (SR leukemia) of the same compound?
Answer: 6.07 µM

Question: And the TGI (SW-620 colon)?
Answer: 5.9 µM

Question: And the TGI (T-47D breast)?
Answer: 24.6 µM

Question: And the TGI (TK-10 renal)?
Answer: 19.4 µM

Question: And the TGI (U251 CNS)?
Answer: 9.25 µM

Question: And the TGI (UACC-257 melanoma)?
Answer: 6.63 µM

Question: And the TGI (UACC-62 melanoma)?
Answer: 3.26 µM

Question: What about the TGI (UO-31 renal) of the same compound?
Answer: 11.8 µM

Question: What about the TGI (XF 498 CNS) of the same compound?
Answer: 11.3 µM

Question: How did the TGI (786-0 renal) turn out when `Cc1[nH]c(=O)nc(N(CCO)/N=C/c2ccccc2Cl)c1C(=O)Nc1cc(Cl)cc(Cl)c1` was run?
Answer: 46.2 µM

Question: What about the TGI (A498 renal) of the same compound?
Answer: 44.5 µM

Question: And the TGI (ACHN renal)?
Answer: > 100 µM

Question: And the TGI (CAKI-1 renal)?
Answer: > 100 µM

Question: What about the TGI (CCRF-CEM leukemia) of the same compound?
Answer: > 100 µM

Question: And the TGI (COLO 205 colon)?
Answer: > 100 µM

Question: And the TGI (DLD-1 colon)?
Answer: > 100 µM

Question: What about the TGI (DMS 114 small cell lung) of the same compound?
Answer: > 100 µM

Question: And the TGI (DMS 273 small cell lung)?
Answer: > 100 µM

Question: What about the TGI (HCC-2998 colon) of the same compound?
Answer: > 100 µM

Question: What about the TGI (HCT-116 colon) of the same compound?
Answer: 59.4 µM

Question: And the TGI (HCT-15 colon)?
Answer: > 100 µM

Question: What about the TGI (HL-60(TB) leukemia) of the same compound?
Answer: > 100 µM

Question: And the TGI (HOP-62 NSCLC)?
Answer: 59.1 µM

Question: What about the TGI (HOP-92 NSCLC) of the same compound?
Answer: 69.9 µM

Question: What about the TGI (IGROV1 ovarian) of the same compound?
Answer: > 100 µM

Question: What about the TGI (K-562 leukemia) of the same compound?
Answer: > 100 µM

Question: And the TGI (LXFL 529 NSCLC)?
Answer: > 100 µM

Question: What about the TGI (M14 melanoma) of the same compound?
Answer: > 100 µM

Question: And the TGI (M19-MEL melanoma)?
Answer: > 100 µM

Question: What about the TGI (MOLT-4 leukemia) of the same compound?
Answer: > 100 µM

Question: What about the TGI (NCI-H226 lung) of the same compound?
Answer: 53.3 µM

Question: What about the TGI (NCI-H23 lung) of the same compound?
Answer: > 100 µM

Question: What about the TGI (NCI-H460 lung) of the same compound?
Answer: > 100 µM

Question: And the TGI (NCI-H522 lung)?
Answer: 87.9 µM

Question: And the TGI (OVCAR-4 ovarian)?
Answer: 93 µM

Question: And the TGI (RPMI-8226 leukemia)?
Answer: > 100 µM

Question: What about the TGI (RXF-631 renal) of the same compound?
Answer: > 100 µM

Question: What about the TGI (SF-268 CNS) of the same compound?
Answer: > 100 µM

Question: And the TGI (SF-539 CNS)?
Answer: 60.1 µM

Question: What about the TGI (SK-MEL-2 melanoma) of the same compound?
Answer: > 100 µM

Question: And the TGI (SK-MEL-28 melanoma)?
Answer: > 100 µM

Question: And the TGI (SK-OV-3 ovarian)?
Answer: 49.8 µM

Question: And the TGI (SN12C renal)?
Answer: > 100 µM

Question: What about the TGI (SNB-75 CNS) of the same compound?
Answer: 63.8 µM

Question: What about the TGI (SR leukemia) of the same compound?
Answer: > 100 µM

Question: And the TGI (UACC-62 melanoma)?
Answer: > 100 µM

Question: And the TGI (UO-31 renal)?
Answer: > 100 µM

Question: And the TGI (XF 498 CNS)?
Answer: > 100 µM
